Assay results reported in US20150065440A1 (Progen Pharmaceuticals Limited, priority 2007, published 2015).
Read-outs that look alike come from different tables or passages of the source.

Assays:
[1] = system: HUVEC proliferation induced by FGF-1; assay: Growth factor induced endothelial cell proliferation assay, FGF-1; type: cell-based, human; settings: 72 h, read-out: FGF-1 (IC50) inhibition of HUVEC proliferation
Description: (§1) HUVEC cells were maintained and subcultured according to standard cell culture protocols essentially as described by Lonza. Briefly, cells were maintained in Lonza endothelial growth media (EGM) with recommended supplements and growth factors (VEGF, FGF2, EFG, IGF, hydrocortisone, fetal bovine serum (FBS), ascorbic acid, heparin and gentamicin). Cells were subcultured when they reached 70-80% confluence by trypsinisation and reseeding in fresh growth medium in new culture vessels at 2500 to 5000 cells/cm^2 of vessel surface area. Cell counts were performed using a haemocytometer and viable cells were visualized with trypan blue.
(§2) Medium for the proliferation studies was prepared using EGM with 2% FBS and gentamicin only. In a later study, complete EGM was used for the VEGF groups in an attempt to enhance the proliferative index of VEGF-stimulated groups. For the tube formation assay, complete medium was used with only heparin omitted. Compounds under investigation were weighed out from powder stocks and diluted in PBS to 10 mM stock solutions and stored at −80° C. For experiments, compounds were subsequently diluted in EBM-2 medium (supplemented with 2% FBS and gentamicin) to various working concentration as required.
(§3) In the first of a series of experiments, the assay was further optimized by examining the cell density and growth factor concentration required to induce maximal proliferation by growth factors. Briefly, 100 μL of cells was added to each well at concentrations between 1-3×10^3 per well. Growth factors and test compounds were then added in 50 μL volumes at specified concentrations to obtain a final volume of 200 μL. Following incubation for 70 h, 20 μL of the CellTitre 96® Aqueous One Solution Cell Proliferation Assay (Promega) was added for 2 h prior to reading the absorbance at 490 nm to obtain OD values.

[2] = system: HUVEC proliferation induced by FGF-2; assay: Growth factor induced endothelial cell proliferation assay, FGF-2; type: cell-based, human; settings: 72 h, read-out: FGF-2 (IC50) inhibition of HUVEC proliferation
Description: as §1, §2, §3

[3] = system: HUVEC proliferation induced by VEGF; assay: Growth factor induced endothelial cell proliferation assay, VEGF; type: cell-based, human; settings: 72 h, read-out: VEGF (IC50) inhibition of HUVEC proliferation
Description: as §1, §2, §3

[4] = system: HUVECs; assay: Matrigel microtubule formation assay; type: cell-based, human; settings: for Microtubule Formation % inhibition at 10 μM: relative to controls
Protocol: as §2
The tube formation assay was performed essentially as described by Malinda et al., with modifications.^41 HUVECs in the fourth or fifth passage at 70-80% confluence were harvested and resuspended in Lonza endothelial growth medium (EGM2) containing all supplements as directed by manufacturer, except heparin, at a cell density of 4×10^5 cells per mL. For each set of triplicate wells, 200 μL of cells (4×10^5/mL) were treated with an equal volume of compound to obtain final concentrations of 10, 50 or 100 μM (thus ensuring 1×300 μL are available for each condition). A 100 μL aliquot of cells was then plated onto 96-well plates pre-coated with growth factor reduced Matrigel™ (50 μL for 30 min followed by a further 30 μL for 1 h) and incubated for 18-22 h. Tube formation was examined by phase-contrast microscopy and images were collected using an Olympus C5050 digital camera. Tube formation inhibition was quantitated manually from images by recording the total number of nodes connecting 3 or more tubules. Untreated HUVECs were used as a control for normal cell growth and tube formation in Matrigel.

[5] = system: HSV-1; assay: Viral plaque number-reduction assay, HSV-1; settings: plaques in GMK AH1 cells (Table 9, footnote b)
Protocol: African green monkey kidney (GMK AH1) cells^46 were cultured in Eagle's minimum essential medium (EMEM) supplemented with 2% calf serum, 0.05% Primaton RL substance (Kraft Inc., Norwich, USA) and antibiotics. Human epidermoid carcinoma (HEp-2) cells were cultured in Dulbecco's modified EMEM (DMEM) supplemented with 10% fetal calf serum and antibiotics. […] The RSV strain A-2^50 was used. The RSV stock was prepared as described by Hallak et al.^51 and stored at −70° C. in the presence of 40% sucrose^52.
The viral infectivity (the plaque number-reduction) assay and the plaque size-reduction assay were carried out as described previously^17. […] Subsequently, the cells were washed with 2 mL of EMEM and overlaid with 1% methylcellulose solution in EMEM. The plaques were visualized by staining with crystal violet solution after 2 (HSV-2) or 3 (HSV-1) days of incubation at 37° C. […] When the compounds were screened for anti-HSV or anti-RSV activity, mixtures of 200 PFU of the virus and the test compound (100 μg/mL) in serum-free EMEM were incubated for 10 min at room temperature before addition to cells and during the entire period of viral infection of cells and the development of viral plaques. In the plaque size-reduction assay, the compounds were added to cells (in methylcellulose overlay medium) after 2 h period of virus infection of cells in the absence of the inhibitor. After 2-3 days of incubation at 37° C., the viral plaques were visualized by staining the cells with 1% solution of crystal violet. For each compound tested, the images of twenty neighboring plaques were captured using a Leica DC300 digital camera attached to a Leitz-Wetzlar Diavert microscope. The area of each plaque was determined using IM500 image software (Leica). Similar protocols were used for RSV, except that the assays were performed in HEp-2 cells and DMEM supplemented with 2% heat-inactivated fetal calf serum was used instead of EMEM.

Structure (SMILES)	IC50 [1]	IC50 [2]	IC50 [3]	Microtubule Formation % inhibition at 10 μM [4]	IC50 ([2]; Homo sapiens, HUVEC)	HSV-1 KOS321 strain IC50 [5]	IC50 ([1]; Homo sapiens, HUVEC)	IC50 ([3]; Homo sapiens, HUVEC)	inhibition at 10 µM ([4]; Homo sapiens, HUVEC, read-out: Microtubule Formation % inhibition at 10 μM)
CC(C)CCC[C@@H](C)[C@H]1CC[C@H]2[C@@H]3CCC4CC(O[C@H]5O[C@H](COS(=O)(=O)[O-])[C@@H](OS(=O)(=O)[O-])[C@H](O[C@H]6O[C@H](COS(=O)(=O)[O-])[C@@H](OS(=O)(=O)[O-])[C@H](O[C@H]7O[C@H](COS(=O)(=O)[O-])[C@@H](OS(=O)(=O)[O-])[C@H](OS(=O)(=O)[O-])[C@@H]7OS(=O)(=O)[O-])[C@@H]6OS(=O)(=O)[O-])[C@@H]5OS(=O)(=O)[O-])CC[C@]4(C)[C@H]3CC[C@]12C.[Na+].[Na+].[Na+].[Na+].[Na+].[Na+].[Na+].[Na+].[Na+].[Na+] (stereo partly drawn) [Compound 56, 3′-Cholestanyl 2,3,4,6-tetra-O-sodium sulfonato-α-D-mannopyranosyl-(1→3)-2,4,6-tri-O-sodium sulfonato-α-D-mannopyranosyl-(1→3)-3,4,6-tri-O-sodium sulfonato-α-D-mannopyranoside]	2.52 µM	1.8 µM	1.72 µM	67%					
CCCCCCCCCCCCCCCCCC(=O)NCCCO[C@@H]1O[C@H](COS(=O)(=O)[O-])[C@@H](O[C@H]2O[C@H](COS(=O)(=O)[O-])[C@@H](O[C@H]3O[C@H](COS(=O)(=O)[O-])[C@@H](O[C@H]4O[C@H](COS(=O)(=O)[O-])[C@@H](OS(=O)(=O)[O-])[C@H](OS(=O)(=O)[O-])[C@H]4OS(=O)(=O)[O-])[C@H](OS(=O)(=O)[O-])[C@H]3OS(=O)(=O)[O-])[C@H](OS(=O)(=O)[O-])[C@H]2OS(=O)(=O)[O-])[C@H](OS(=O)(=O)[O-])[C@H]1OS(=O)(=O)[O-].[Na+].[Na+].[Na+].[Na+].[Na+].[Na+].[Na+].[Na+].[Na+].[Na+].[Na+].[Na+].[Na+] [Compound 128, 3-Stearamidopropyl 2,3,4,6-tetra-O-sulfo-α-D-glucopyranosyl-(1→4)-2,3,6-tri-O-sulfo-α-D-glucopyranosyl-(1→4)-2,3,6-tri-O-sulfo-α-D-glucopyranosyl-(1→4)-2,3,6-tri-O-sulfo-β-D-glucopyranoside, tridecasodium salt]					0.77 µM				
CC(C)CCC[C@@H](C)[C@H]1CC[C@H]2[C@@H]3CCC4C[C@@H](OCc5cn(CCCO[C@H]6O[C@H](COS(=O)(=O)[O-])[C@@H](OS(=O)(=O)[O-])[C@H](O[C@H]7O[C@H](COS(=O)(=O)[O-])[C@@H](OS(=O)(=O)[O-])[C@H](O[C@H]8O[C@H](COS(=O)(=O)[O-])[C@@H](OS(=O)(=O)[O-])[C@H](OS(=O)(=O)[O-])[C@@H]8OS(=O)(=O)[O-])[C@@H]7OS(=O)(=O)[O-])[C@@H]6OS(=O)(=O)[O-])nn5)CC[C@]4(C)[C@H]3CC[C@]12C.[Na+].[Na+].[Na+].[Na+].[Na+].[Na+].[Na+].[Na+].[Na+].[Na+] (stereo partly drawn) [Compound 60, 3-{4-(Cholestan-3β-yl-oxymethyl)-[1,2,3]triazol-1-yl}propyl 2,3,4,6-tetra-O-sodium sulfonato-α-D-mannopyranosyl-(1→3)-2,4,6-tri-O-sodium sulfonato-α-D-mannopyranosyl-(1→3)-3,4,6-tri-O-sodium sulfonato-α-D-mannopyranoside]	2.61 µM	1.22 µM	1.44 µM	49%					
CC(C)CCC[C@@H](C)[C@H]1CC[C@H]2[C@@H]3CCC4CC(OCc5cn([C@@H]6O[C@H](COS(=O)(=O)[O-])[C@@H](O[C@H]7O[C@H](COS(=O)(=O)[O-])[C@@H](O[C@H]8O[C@H](COS(=O)(=O)[O-])[C@@H](OS(=O)(=O)[O-])[C@H](OS(=O)(=O)[O-])[C@H]8OS(=O)(=O)[O-])[C@H](OS(=O)(=O)[O-])[C@H]7OS(=O)(=O)[O-])[C@H](OS(=O)(=O)[O-])[C@H]6OS(=O)(=O)[O-])nn5)CC[C@]4(C)[C@H]3CC[C@]12C.[Na+].[Na+].[Na+].[Na+].[Na+].[Na+].[Na+].[Na+].[Na+].[Na+] (stereo partly drawn) [Compound 70, 4-(Cholestan-3-yl-oxymethyl)[1,2,3]triazol-1-yl 2,3,4,6-tetra-O-sodium sulfonato-α-D-glucopyranosyl-(1→4)-2,3,6-tri-O-sodium sulfonato-α-D-glucopyranosyl-(1→4)-1-deoxy-2,3,6-tri-O-sodium sulfonato-β-D-glucopyranoside]	2.3 µM	0.64 µM	2.2 µM	52%		0.25 µg/mL			
CC(C)CCC[C@@H](C)[C@H]1CC[C@H]2[C@@H]3CC[C@H]4C[C@@H](O[C@H]5O[C@H](COS(=O)(=O)O)[C@@H](OS(=O)(=O)O)[C@H](OS(=O)(=O)O)[C@@H]5O[C@H]5O[C@H](COS(=O)(=O)O)[C@@H](OS(=O)(=O)O)[C@H](OS(=O)(=O)O)[C@@H]5OS(=O)(=O)O)CC[C@]4(C)[C@H]3CC[C@]12C [Compound 33, 3β-Cholestanyl 2,3,4,6-tetra-O-sodium sulfonato-α-D-mannopyranosyl-(1→2)-3,4,6-tri-O-sodium sulfonato-α-D-mannopyranoside]					2.22 µM		> 10 µM	1.85 µM	14%
